Results reported in PubChem BioAssay AID248 (DTP/NCI, 2004).
Values joined by “and” are separate entries in the source; they are usually repeats but may differ in a detail not shown here. Equal values may be shown once. Toxic doses and inconclusive results are not listed.

Tested on: L1210 leukemia ip in BDF1 mice, survival T/C
Assay: NCI In Vivo Anticancer Drug Screen. Data for tumor model L1210 Leukemia (intraperitoneal) in B6D2F1 (BDF1) mice
Settings: higher = longer survival
Procedure, shortened: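 Transplanted-tumor mice were given test agent; controls received vehicle only. Survival readings from the two groups were divided (treated over control).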

Structure (SMILES): N[C@H](C(=O)O)[C@H]1ON=C(Cl)[C@@H]1O
- T/C (endpoint: mean survival time, dose: 0.78 mg/kg/injection, schedule: Q01DX009 (ip), vehicle: saline): 108 % of control
- T/C (endpoint: mean survival time, dose: 5.5 mg/kg/injection, schedule: Q01DX009 (ip), vehicle: Klucel (hydroxypropylcellulose) (HPC)): 108 % of control
- T/C (endpoint: mean survival time, dose: 25.0 mg/kg/injection, schedule: Q01DX009 (ip), vehicle: Klucel (hydroxypropylcellulose) (HPC)): 118 % of control
- T/C (endpoint: mean survival time, dose: 50.0 mg/kg/injection, schedule: Q01DX009 (ip), vehicle: Klucel (hydroxypropylcellulose) (HPC)): 150 % of control
- T/C (endpoint: mean survival time, dose: 66.0 mg/kg/injection, schedule: Q01DX009 (ip), vehicle: Klucel (hydroxypropylcellulose) (HPC)): 151 % of control
- T/C (endpoint: mean survival time, dose: 100.0 mg/kg/injection, schedule: Q01DX009 (ip), vehicle: Klucel (hydroxypropylcellulose) (HPC)): 154 % of control and 158 % of control
- T/C (endpoint: mean survival time, dose: 150.0 mg/kg/injection, schedule: Q01DX009 (ip), vehicle: Klucel (hydroxypropylcellulose) (HPC)): 104 % of control
- T/C (endpoint: median survival time, dose: 4.0 mg/kg/injection, schedule: Q03HX008 (ip), vehicle: saline): 123 % of control
- T/C (endpoint: median survival time, dose: 4.0 mg/kg/injection, schedule: Q03HX024 (ip), vehicle: saline): 154 % of control
- T/C (endpoint: median survival time, dose: 6.25 mg/kg/injection, schedule: Q03HX016 (ip), vehicle: saline): 154 % of control
- T/C (endpoint: median survival time, dose: 6.25 mg/kg/injection, schedule: Q03HX024 (ip), vehicle: saline): 189 % of control
- T/C (endpoint: median survival time, dose: 8.0 mg/kg/injection, schedule: Q01DX009 (sc), vehicle: saline): 118 % of control
- T/C (endpoint: median survival time, dose: 8.0 mg/kg/injection, schedule: Q03HX016 (ip), vehicle: saline): 153 % of control
- T/C (endpoint: median survival time, dose: 12.5 mg/kg/injection, schedule: Q03HX016 (ip), vehicle: saline): 152 % of control
- T/C (endpoint: median survival time, dose: 12.5 mg/kg/injection, schedule: Q03HX024 (ip), vehicle: saline): 170 % of control
- T/C (endpoint: median survival time, dose: 16.0 mg/kg/injection, schedule: Q03HX016 (ip), vehicle: saline): 150 % of control
- T/C (endpoint: median survival time, dose: 25.0 mg/kg/injection, schedule: Q01DX001 (ip), vehicle: saline): 113 % of control
- T/C (endpoint: median survival time, dose: 25.0 mg/kg/injection, schedule: Q01DX009 (ip), vehicle: saline): 171 % of control
- T/C (endpoint: median survival time, dose: 25.0 mg/kg/injection, schedule: Q03HX016 (ip), vehicle: saline): 160 % of control
- T/C (endpoint: median survival time, dose: 25.0 mg/kg/injection, schedule: Q08DX002 (ip), vehicle: saline): 104 % of control
- T/C (endpoint: median survival time, dose: 32.0 mg/kg/injection, schedule: Q01DX001 (ip), vehicle: saline): 105 % of control
- T/C (endpoint: median survival time, dose: 32.0 mg/kg/injection, schedule: Q01DX001 (sc), vehicle: saline): 105 % of control
- T/C (endpoint: median survival time, dose: 32.0 mg/kg/injection, schedule: Q03HX016 (ip), vehicle: saline): 150 % of control
- T/C (endpoint: median survival time, dose: 32.0 mg/kg/injection, schedule: Q03HX024 (ip), vehicle: saline): 153 % of control
- T/C (endpoint: median survival time, dose: 32.0 mg/kg/injection, schedule: Q04DX003 (ip), vehicle: saline): 122 % of control
- T/C (endpoint: median survival time, dose: 32.0 mg/kg/injection, schedule: Q08DX002 (ip), vehicle: saline): 111 % of control
- T/C (endpoint: median survival time, dose: 50.0 mg/kg/injection, schedule: Q01DX001 (ip), vehicle: saline): 113 % of control
- T/C (endpoint: median survival time, dose: 50.0 mg/kg/injection, schedule: Q03HX016 (ip), vehicle: saline): 158 % of control
- T/C (endpoint: median survival time, dose: 50.0 mg/kg/injection, schedule: Q08DX002 (ip), vehicle: saline): 108 % of control
- T/C (endpoint: median survival time, dose: 64.0 mg/kg/injection, schedule: Q01DX001 (ip), vehicle: saline): 100 % of control
- T/C (endpoint: median survival time, dose: 64.0 mg/kg/injection, schedule: Q01DX001 (sc), vehicle: saline): 106 % of control
- T/C (endpoint: median survival time, dose: 64.0 mg/kg/injection, schedule: Q01DX009 (oral), vehicle: saline): 115 % of control
- T/C (endpoint: median survival time, dose: 64.0 mg/kg/injection, schedule: Q01DX009 (sc), vehicle: saline): 151 % of control
- T/C (endpoint: median survival time, dose: 64.0 mg/kg/injection, schedule: Q03HX024 (ip), vehicle: saline): 153 % of control
- T/C (endpoint: median survival time, dose: 64.0 mg/kg/injection, schedule: Q04DX003 (ip), vehicle: saline): 122 % of control
- T/C (endpoint: median survival time, dose: 64.0 mg/kg/injection, schedule: Q08DX002 (ip), vehicle: saline): 113 % of control
- T/C (endpoint: median survival time, dose: 100.0 mg/kg/injection, schedule: Q01DX001 (ip), vehicle: saline): 104 % of control
- T/C (endpoint: median survival time, dose: 100.0 mg/kg/injection, schedule: Q01DX009 (ip), vehicle: saline): 169 % of control
- T/C (endpoint: median survival time, dose: 100.0 mg/kg/injection, schedule: Q03HX016 (ip), vehicle: saline): 152 % of control
- T/C (endpoint: median survival time, dose: 100.0 mg/kg/injection, schedule: Q03HX024 (ip), vehicle: saline): 202 % of control
- T/C (endpoint: median survival time, dose: 100.0 mg/kg/injection, schedule: Q04DX003 (ip), vehicle: saline): 122 % of control
- T/C (endpoint: median survival time, dose: 100.0 mg/kg/injection, schedule: Q08DX002 (ip), vehicle: saline): 114 % of control
- T/C (endpoint: median survival time, dose: 128.0 mg/kg/injection, schedule: Q01DX001 (ip), vehicle: saline): 108 % of control
- T/C (endpoint: median survival time, dose: 128.0 mg/kg/injection, schedule: Q01DX001 (sc), vehicle: saline): 104 % of control
- T/C (endpoint: median survival time, dose: 128.0 mg/kg/injection, schedule: Q01DX009 (ip), vehicle: saline): 151 % of control
- T/C (endpoint: median survival time, dose: 128.0 mg/kg/injection, schedule: Q01DX009 (sc), vehicle: saline): 163 % of control
- T/C (endpoint: median survival time, dose: 128.0 mg/kg/injection, schedule: Q03HX024 (ip), vehicle: saline): 152 % of control
- T/C (endpoint: median survival time, dose: 128.0 mg/kg/injection, schedule: Q04DX003 (ip), vehicle: saline): 108 % of control
- T/C (endpoint: median survival time, dose: 128.0 mg/kg/injection, schedule: Q08DX002 (ip), vehicle: saline): 102 % of control
- T/C (endpoint: median survival time, dose: 200.0 mg/kg/injection, schedule: Q01DX001 (ip), vehicle: saline): 108 % of control
- T/C (endpoint: median survival time, dose: 200.0 mg/kg/injection, schedule: Q01DX009 (ip), vehicle: saline): 104 % of control
- T/C (endpoint: median survival time, dose: 200.0 mg/kg/injection, schedule: Q08DX002 (ip), vehicle: saline): 104 % of control
- T/C (endpoint: median survival time, dose: 256.0 mg/kg/injection, schedule: Q01DX001 (ip), vehicle: saline): 104 % of control
- T/C (endpoint: median survival time, dose: 256.0 mg/kg/injection, schedule: Q01DX001 (oral), vehicle: saline): 108 % of control and 109 % of control
- T/C (endpoint: median survival time, dose: 256.0 mg/kg/injection, schedule: Q01DX001 (sc), vehicle: saline): 104 % of control
- T/C (endpoint: median survival time, dose: 256.0 mg/kg/injection, schedule: Q01DX009 (ip), vehicle: saline): 153 % of control
- T/C (endpoint: median survival time, dose: 256.0 mg/kg/injection, schedule: Q01DX009 (oral), vehicle: saline): 115 % of control and 90 % of control
- T/C (endpoint: median survival time, dose: 256.0 mg/kg/injection, schedule: Q08DX002 (ip), vehicle: saline): 99 % of control
- T/C (endpoint: median survival time, dose: 400.0 mg/kg/injection, schedule: Q01DX001 (ip), vehicle: saline): 117 % of control
- T/C (endpoint: median survival time, dose: 400.0 mg/kg/injection, schedule: Q08DX002 (ip), vehicle: saline): 122 % of control
- T/C (endpoint: median survival time, dose: 512.0 mg/kg/injection, schedule: Q01DX001 (ip), vehicle: saline): 105 % of control
- T/C (endpoint: median survival time, dose: 512.0 mg/kg/injection, schedule: Q01DX001 (oral), vehicle: saline): 115 % of control and 118 % of control
- T/C (endpoint: median survival time, dose: 512.0 mg/kg/injection, schedule: Q01DX001 (sc), vehicle: saline): 107 % of control
- T/C (endpoint: median survival time, dose: 512.0 mg/kg/injection, schedule: Q01DX009 (oral), vehicle: saline): 87 % of control
- T/C (endpoint: median survival time, dose: 512.0 mg/kg/injection, schedule: Q08DX002 (ip), vehicle: saline): 102 % of control
- T/C (endpoint: median survival time, dose: 1024.0 mg/kg/injection, schedule: Q01DX001 (ip), vehicle: saline): 114 % of control
- T/C (endpoint: median survival time, dose: 1024.0 mg/kg/injection, schedule: Q01DX001 (oral), vehicle: saline): 114 % of control
- T/C (endpoint: median survival time, dose: 1024.0 mg/kg/injection, schedule: Q01DX001 (sc), vehicle: saline): 109 % of control
- T/C (endpoint: median survival time, dose: 1024.0 mg/kg/injection, schedule: Q08DX002 (ip), vehicle: saline): 118 % of control

Structure (SMILES): Nc1nc(SC2CCCCC2)c2[nH]cnc2n1
- T/C (endpoint: mean survival time, dose: 60.0 mg/kg/injection, schedule: Q01DX Z (ip), vehicle: carboxymethylcellulose (CMC)): 95 % of control
- T/C (endpoint: mean survival time, dose: 120.0 mg/kg/injection, schedule: Q01DX Z (ip), vehicle: carboxymethylcellulose (CMC)): 104 % of control
- T/C (endpoint: mean survival time, dose: 240.0 mg/kg/injection, schedule: Q01DX Z (ip), vehicle: carboxymethylcellulose (CMC)): 106 % of control
- T/C (endpoint: mean survival time, dose: 480.0 mg/kg/injection, schedule: Q01DX Z (ip), vehicle: carboxymethylcellulose (CMC)): 112 % of control
